Type in all cases: in vivo, mouse
In one assay the test system is eNOS. The assay is described as follows: Western blot of total eNOS and p-eNOS (Ser1179) in brain after SAH. Here is the method:
(§1) Synthetic adropin^34-76 peptide was supplied from Bachem (Bubendorf, Switzerland) and diluted in 0.1% BSA in saline. 0.1% BSA in saline was used as vehicle control for all experiments. Adropin (450 nmol/kg) or an equivalent volume of vehicle was delivered via intraperitoneal injection 15 minutes post-SAH. For experiments ending at 24 hours post-SAH, an identical dose of adropin/vehicle was given again 12 hours later. For experiments ending 7 days post-SAH, adropin/vehicle was given again on days 1, 3 & 5 post-SAH. In the aneurysm rupture model, adropin was given at a dose of 450 nmol/kg starting 3 days before aneurysm induction (elastase injection). Adropin was given every other day until sacrifice
SAH was modeled using the anterior circulation single autologous blood injection method^25,33 with minor adjustments. Mice were anesthetized with ketamine (100 mg/kg) and xylazine (10 mg/kg) before removing hair from scalp and cleaning with serial betadine—saline washes. The tail was also prepped from the base extending 1 cm distally. Mice were then fixed into a stereotaxic frame and body temperature maintained at 37° C. The scalp was incised along the sagittal suture from bregma to the nasal bone. The skin was reflected and a burr hole was drilled 5.0 mm rostral of bregma and 0.5 mm right laterally to avoid puncturing dural venous sinuses. […] 50 μL of blood was drawn into a Hamilton syringe (Hamilton, Reno, Nevada) and passed through the cranial burr hole at an angle of 30° caudally until contact with the skull base (approximately 7.2 mm). The syringe was left in place for 30 seconds to allow for tissue accommodation before blood was manually injected at a rate of 10 μL/minute. After blood injection was complete, the syringe was left in place for an additional 3 minutes and then retracted slowly at a rate of 10 mm/minute. Sham surgery was the identical procedure and timing including placement of the stereotactic needle but without blood injection. After the needle and syringe were removed, the burr hole was covered and skin flap was sutured with 5-0 ethilon suture.
At 24 hours or 7 days post-SAH, mice were deeply anesthetized and perfused with 10 mL of ice-cold PBS. Brains were harvested from the skull and placed into a cold brain matrix (Harvard Apparatus, Holliston, Massachusetts). The olfactory lobe was removed, and brains were cut in half along the mid-sagittal plane. The right hemisphere was cut again 2 mm caudally from the rostral edge and the pieces of tissue were snap frozen in liquid N2. Once all tissue samples were collected, brains were homogenized with a Dounce homogenizer and incubated in radioimmunoprecipitation assay (RIPA) buffer at 4° C. for 90 minutes with constant agitation. Samples were centrifuged, supernatant collected, and protein quantified via Bradford assay. Samples were then frozen at −20° C. or used immediately. 30 μg of total protein was separated electrophoretically through a 4-15% tris-glycine gel at 90V for 60 minutes and transferred onto nitrocellulose membranes with 0.45 μm pore size. Membranes were blocked with 5% skim milk in TBST (5% BSA for phospho-eNOS blots) for 1 hours at room temperature and then probed with specified primary antibodies (Table 1) diluted in 5% skim milk (5% BSA for phospho-eNOS) overnight at 4° C. with constant agitation. […]

For the next assay, the system named is eNOS^−/− mice, SAH model. The assay is described as follows: Sensorimotor deficits (corner test) after SAH in eNOS knockout mice. From the text:
All animal experiments were approved by IACUC (Institutional Animal Care and Use Committee) and performed in accordance with ARRIVE (Animal Research: Reporting of In Vivo Experiments) guidelines. All animals were 12-15-week-old females and were housed in pathogen-free housing with ad libitum food and water and 12-h light/dark cycling. Wild-type C57B1/6 mice were received from Charles River Labs (Wilmington, Mass.) and eNOS knockout mice were obtained from The Jackson Laboratory (Bar Harbor, Maine). eNOS knockout breeding pairs were genotyped prior to breeding and F1 progeny used for all experiments. The following primers were used for genotyping: eNOS knockout (Nos3^−/−): F-5′-[…]-3′, R-5′-[…]-3′. All animals underwent twice daily monitoring from institutional animal care services staff and/or investigators. Mice were randomized to treatment groups prior to surgical procedures.
Synthetic adropin^34-76 peptide was supplied from Bachem (Bubendorf, Switzerland) and diluted in 0.1% BSA in saline. 0.1% BSA in saline was used as vehicle control for all experiments. Adropin (450 nmol/kg) or an equivalent volume of vehicle was delivered via intraperitoneal injection 15 minutes post-SAH. For experiments ending at 24 hours post-SAH, an identical dose of adropin/vehicle was given again 12 hours later. For experiments ending 7 days post-SAH, adropin/vehicle was given again on days 1, 3 & 5 post-SAH. […]

Assay [1] has as its system murine intracranial aneurysm rupture model. Description: Intracranial aneurysm rupture model. The settings on record: 450 nmol/kg every other day from 3 days before aneurysm induction, vs vehicle. Here is the method: as §1
Cerebral aneurysms were induced as previously described. Briefly, mice were anesthetized with ketamine (100 mg/kg) and xylazine (10 mg/kg) before the left common carotid artery and the right renal artery were ligated with 7-0 silk suture (Ethicon Inc., Somerville, New Jersey). Carotid and renal artery ligations are hereafter referred to as ligations. One week after ligations, mice were anesthetized and 10 μL of 1.0 U/mL porcine pancreatic elastase solution (Worthington Biochemical Corp, Lakewood, New Jersey) diluted in phosphate buffered saline (PBS, Invitrogen, Carlsbad, California) was stereotactically injected into the right basal cistern at 1.2 mm rostral of bregma, 0.7 mm lateral of midline, and 5.3 mm deep to the surface of the brain. A subcutaneous osmotic pump (Alzet, Cupertino, California) placed in the right flank immediately after elastase injection and continually infused angiotensin II (Bachem, Torrence, California) at a dose of 1000 ng/kg/min. Elastase injection and osmotic pump placement are hereafter referred to as aneurysm induction. Following recovery from aneurysm induction, mice were fed a diet of 8% NaCl with 0.12% beta-aminopropionitrile (BAPN; Harlan Laboratories, Indianapolis, Indiana).
Three weeks post-aneurysm induction, mice were deeply anesthetized with ketamine/xylazine. A bilateral anterolateral thoracotomy with transverse sternotomy was made to expose the heart and great vessels. The right atrium was punctured with the tip of a 23 g needle as an outlet before the left ventricle was sequentially perfused with normal saline, 4% paraformaldehyde (PFA), and Coomassie Brilliant Blue dye in a 20% gelatin solution. Brains were carefully removed from the skull and inspected under a dissection microscope for the presence of aneurysms as evidenced by outpouching of cerebral arteries in or connected to the circle of Willis. Aneurysm rupture was identified by the presence of extravasated blood near an identified aneurysm. […]

Regarding “adropin (CHSRSADVDSLSESSPNSSPGPCPEKAPPPQKPSHEGSYLLQP) [Synthetic adropin^34-76 peptide from Bachem]”, in the assay on eNOS (7 day post-SAH), the phospho-eNOS levels entry is “adropin treatment increase phospho-eNOS levels” and the “total eNOS” value is recorded as “slightly increased in both SAH groups; however, neither reached statistical significance”. For the same substance, the Phospho-eNOS/eNOS ratio entry with eNOS (7 day post-SAH, p=0.08 vs SAH+vehicle, p=0.08 vs sham+vehicle) is on record as “trended higher with adropin treatment”. Moreover, the “p-eNOS/total eNOS ratio” value in the assay with eNOS (one day post-SAH) is listed as “no change in p-eNOS/total eNOS ratios between any groups”. Besides, the “eNOS phosphorylation (Ser1179)” value in the assay with eNOS (one day post-SAH, vs SAH+vehicle) is reported as “increased eNOS phosphorylation one day post-SAH”. For the same substance, in the assay with eNOS^−/− mice, SAH model, the “sensorimotor deficits (corner test turn preference)” value was “adropin also had no effect on sensorimotor deficits”. Also, in assay [1], the aneurysm formation result is recorded as “did not significantly reduce aneurysm formation”, the aneurysm rupture entry was “did not significantly reduce aneurysm formation (FIG. 9C) or aneurysm rupture”, the “deficit-free (symptom-free) survival” value is listed as “extended deficit-free survival compared to vehicle” and the “proportion of aneurysm ruptures that were symptom-producing” value is “less likely to be symptom-producing”.

For the origin of these results see US20250144179A1, “PEPTIDE HORMONE TO PREVENT OR TREAT VASOSPASM, BRAIN INJURY OR CEREBRAL EDEMA” (UNIVERSITY OF FLORIDA RESEARCH FOUNDATION, INCORPORATED, priority 2022, published 2025).
